Several values for one entry are separate records, joined by “and”; a condition that tells them apart may be missing. Equal values may be shown once.
Conditions: Crystal, Torsion effusion method

[Cl][Al]([Cl])[Cl] [aluminum chloride]
Conditions | vapor or sublimation pressure
321 K | 0.00017 kPa
323 K | 0.000234 kPa
327 K | 0.00038 kPa
329 K | 0.000525 kPa and 0.000513 kPa
330 K | 0.00055 kPa
333 K | 0.000676 kPa
334 K | 0.000891 kPa
336 K | 0.001023 kPa
338 K | 0.001622 kPa
339 K | 0.001622 kPa and 0.001585 kPa
340 K | 0.002089 kPa and 0.001862 kPa
342 K | 0.002455 kPa
343 K | 0.002951 kPa
344 K | 0.003388 kPa
345 K | 0.003631 kPa and 0.003715 kPa
346 K | 0.003981 kPa
347 K | 0.004898 kPa and 0.004266 kPa
348 K | 0.004786 kPa and 0.00537 kPa
349 K | 0.00631 kPa
350 K | 0.006761 kPa
351 K | 0.006761 kPa and 0.006457 kPa
352 K | 0.008318 kPa
353 K | 0.008318 kPa and 0.008913 kPa
354 K | 0.01072 kPa and 0.00912 kPa
355 K | 0.01202 kPa and 0.01175 kPa
356 K | 0.01175 kPa
358 K | 0.01445 kPa and 0.01585 kPa
362 K | 0.02399 kPa
363 K | 0.0263 kPa
366 K | 0.03715 kPa
368.5 K | 0.04898 kPa
369 K | 0.05129 kPa
372 K | 0.06918 kPa
373 K | 0.08511 kPa
376.5 K | 0.1175 kPa
378 K | 0.1288 kPa

[F][Al]([F])[F] [aluminum fluoride]
Conditions | vapor or sublimation pressure
956 K | 0.000105 kPa
960 K | 0.000132 kPa
968 K | 0.000209 kPa
970 K | 0.000209 kPa
974 K | 0.000209 kPa
975 K | 0.000209 kPa
977 K | 0.000263 kPa
982 K | 0.000316 kPa
985 K | 0.000363 kPa
987 K | 0.000363 kPa
991 K | 0.000417 kPa and 0.000468 kPa
994 K | 0.000468 kPa
998 K | 0.000575 kPa
1001 K | 0.000631 kPa
1002 K | 0.000676 kPa
1007 K | 0.000724 kPa
1010 K | 0.000813 kPa
1013 K | 0.000933 kPa
1014 K | 0.000933 kPa
1018 K | 0.001122 kPa
1022 K | 0.001259 kPa
1023 K | 0.001259 kPa
1026 K | 0.001413 kPa
1029 K | 0.001549 kPa
1033 K | 0.00182 kPa
1036 K | 0.001862 kPa
1040 K | 0.002188 kPa
1043 K | 0.002512 kPa
1048 K | 0.002754 kPa
1052 K | 0.003162 kPa and 0.003236 kPa
1053 K | 0.003236 kPa
1059 K | 0.00389 kPa
1062 K | 0.004467 kPa
1063 K | 0.004365 kPa
1066 K | 0.005012 kPa
1070 K | 0.00537 kPa
1071 K | 0.005754 kPa
1074 K | 0.00631 kPa
1078 K | 0.006918 kPa
1083 K | 0.008128 kPa and 0.008318 kPa
1086 K | 0.008913 kPa
1089 K | 0.009333 kPa
1093 K | 0.01072 kPa
1097 K | 0.0123 kPa
1098 K | 0.01202 kPa
1100 K | 0.01288 kPa
1104 K | 0.01479 kPa
1107 K | 0.01549 kPa
1109 K | 0.01698 kPa
1112 K | 0.0182 kPa
1113 K | 0.01862 kPa

Source: the NIST ThermoML archive (doi:10.1021/je8007167)
